Measured values taken from US20230242553A1, “PROCESS FOR THE PREPARATION OF 1-METHYL-6-[6-R2-5-METHYL-8-(METHYLAMINO)-4-[ (3AS,6AS)-5-METHYL-2,3,3A,4,6,6A-HEXAHYDROPYRROLO[2,3-C]PYRROL-1-YL]-9H-PYRIDO[2,3-B]INDOL-3-YL]-4-OXO-1,8-NAPHTHYRIDINE-3-CARBOXYLIC ACID HYDROCHLORIDE” (Hoffmann-La Roche Inc., priority 2020, published 2023).
Counter-ions that a name gives are not always drawn.

Assay: Stability experiment of final compound: solid in sealed vial kept in oven, purity checked by UPLC
Type: physicochemical
Settings: for Stability Result Solid at 20° C./7day (purity) / Stability Result Solid at 100° C./1 day (purity): 10 mg solid in 4 mL vial with sealed cap; for Stability Result Solid at 20° C./7day (purity): 7 days; for Stability Result Solid at 20° C./7day (purity) / Stability Result Solid at 100° C./1 day (purity) / Initial Purity: purity by UPLC; for Stability Result Solid at 100° C./1 day (purity): oven 100° C.; for Stability of HCl salt compared with freebase form: conclusion in words from Table 2; for Initial Purity: solid before storage
Excerpt: Stability Experiment of Final Compound of Formula (I)
Freebase of Example 4: 6-[5-cyano-6-fluoro-8-(methylamino)-4-[(3aS,6aS)-5-methyl-2,3,3a,4,6,6a-hexahydropyrrolo[2,3-c]pyrrol-1-yl]-9H-pyrido[2,3-b]indol-3-yl]-1-methyl-4-oxo-1,8-naphthyridine-3-carboxylic acid; initial purity: 99.16%
HCl salt compound (Example 4): 6-[5-cyano-6-fluoro-8-(methylamino)-4-[(3aS,6aS)-5-methyl-2,3,3a,4,6,6a-hexahydropyrrolo[2,3-c]pyrrol-1-yl]-9H-pyrido[2,3-b]indol-3-yl]-1-methyl-4-oxo-1,8-naphthyridine-3-carboxylic acid; hydrochloride; initial purity: 98.50%
Freebase of Example 8: 6-[5,6-difluoro-8-(methylamino)-4-[(3aS,6aS)-5-methyl-2,3,3a,4,6,6a-hexahydropyrrolo[2,3-c]pyrrol-1-yl]-9H-pyrido[2,3-b]indol-3-yl]-1-methyl-4-oxo-1,8-naphthyridine-3-carboxylic acid; initial purity: 97.96%
HCl salt compound (Example 8): 6-[5,6-difluoro-8-(methylamino)-4-[(3aS,6aS)-5-methyl-2,3,3a,4,6,6a-hexahydropyrrolo[2,3-c]pyrrol-1-yl]-9H-pyrido[2,3-b]indol-3-yl]-1-methyl-4-oxo-1,8-naphthyridine-3-carboxylic acid; hydrochloride; initial purity: 97.80%
Condition: 10 mg of compound in 4 mL vial with sealed cap. Keep in oven at certain temperature for certain days. Then, the purity of solid was checked by UPLC.

Stability Result Solid at 20° C./7day (purity) (dihydrochloride) [%] | Stability Result Solid at 100° C./1 day (purity) (dihydrochloride) [%] | Stability of HCl salt compared with freebase form | Initial Purity [%] | Stability Result Solid at 20° C./7day (purity) [%] | Stability Result Solid at 100° C./1 day (purity) [%] | SMILES
98.67 | 98.48 | much more stable than its freebase form | 98.50 | – | – | CNc1cc(F)c(C#N)c2c1[nH]c1ncc(-c3cnc4c(c3)c(=O)c(C(=O)O)cn4C)c(N3CC[C@H]4CN(C)C[C@H]43)c12 [HCl salt compound (Example 4), 6-[5-Cyano-6-fluoro-8-(methylamino)-4-[(3aS,6aS)-5-methyl-2,3,3a,4,6,6a-hexahydropyrrolo[2,3-c]pyrrol-1-yl]-9H-pyrido[2,3-b]indol-3-yl]-1-methyl-4-oxo-1,8-naphthyridine-3-carboxylic acid; dihydrochloride]
97.78 | 97.77 | much more stable than its freebase form | 97.80 | – | – | CNc1cc(F)c(F)c2c1[nH]c1ncc(-c3cnc4c(c3)c(=O)c(C(=O)O)cn4C)c(N3CC[C@H]4CN(C)C[C@H]43)c12 [HCl salt compound (Example 8), 6-[5,6-Difluoro-8-(methylamino)-4-[(3aS,6aS)-5-methyl-2,3,3a,4,6,6a-hexahydropyrrolo[2,3-c]pyrrol-1-yl]-9H-pyrido[2,3-b]indol-3-yl]-1-methyl-4-oxo-1,8-naphthyridine-3-carboxylic acid; dihydrochloride]
– | – | – | 97.96 | 96.72 | 91.08 | CNc1cc(F)c(F)c2c1[nH]c1ncc(-c3cnc4c(c3)c(=O)c(C(=O)O)cn4C)c(N3CC[C@H]4CN(C)C[C@H]43)c12 [Freebase of Example 8, 6-[5,6-difluoro-8-(methylamino)-4-[(3aS,6aS)-5-methyl-2,3,3a,4,6,6a-hexahydropyrrolo[2,3-c]pyrrol-1-yl]-9H-pyrido[2,3-b]indol-3-yl]-1-methyl-4-oxo-1,8-naphthyridine-3-carboxylic acid]
– | – | – | 99.16 | 95.73 | 93.35 | CNc1cc(F)c(C#N)c2c1[nH]c1ncc(-c3cnc4c(c3)c(=O)c(C(=O)O)cn4C)c(N3CC[C@H]4CN(C)C[C@H]43)c12 [Freebase of Example 4, 6-[5-cyano-6-fluoro-8-(methylamino)-4-[(3aS,6aS)-5-methyl-2,3,3a,4,6,6a-hexahydropyrrolo[2,3-c]pyrrol-1-yl]-9H-pyrido[2,3-b]indol-3-yl]-1-methyl-4-oxo-1,8-naphthyridine-3-carboxylic acid]
